The target in one experiment is T1, ER-α (Homo sapiens, UniProt P03372).
T1 sequence (P03372 1-595): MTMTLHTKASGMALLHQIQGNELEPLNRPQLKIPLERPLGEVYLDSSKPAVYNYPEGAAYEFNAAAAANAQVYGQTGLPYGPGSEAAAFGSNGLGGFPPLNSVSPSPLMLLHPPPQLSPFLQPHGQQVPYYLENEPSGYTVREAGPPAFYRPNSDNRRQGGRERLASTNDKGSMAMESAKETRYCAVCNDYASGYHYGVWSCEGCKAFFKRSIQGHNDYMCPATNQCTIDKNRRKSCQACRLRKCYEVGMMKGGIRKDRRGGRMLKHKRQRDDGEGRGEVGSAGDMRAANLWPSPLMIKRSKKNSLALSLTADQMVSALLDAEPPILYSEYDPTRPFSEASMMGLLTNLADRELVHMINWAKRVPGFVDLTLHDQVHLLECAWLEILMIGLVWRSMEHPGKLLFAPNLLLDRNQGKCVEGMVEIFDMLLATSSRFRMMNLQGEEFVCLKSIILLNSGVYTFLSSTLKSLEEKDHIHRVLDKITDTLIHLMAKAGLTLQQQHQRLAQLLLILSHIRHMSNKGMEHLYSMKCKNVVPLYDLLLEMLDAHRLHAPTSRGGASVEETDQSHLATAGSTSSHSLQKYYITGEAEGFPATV
The experiment in a line: Breast Cancer Cell ER-α In Cell Western Assay (SP1). In kind it is cell-based. To be noted: MCF-7 cells, SP1 antibody, 4 or 24 hr post compound addition; for Emax: MCF7, read-out: ER-α In Cell Western Assay (SP1) Max Response; for DC50: read-out: ER-α In Cell Western Assay (SP1) IC50. The gist of the method: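 ER-α protein levels measured by in-cell western with SP1 antibody, ratioed to DRAQ5 DNA signal and given as percent of untreated controls. Compounds added at 0.3–0.000003 μM final (eleven semilog points) to adherent MCF-7 cells in stripped serum; exposure 4 or 24 h before fixation.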

In the next experiment the test system is MCF-7 cells. The experiment in a line: Breast Cancer Cell Viability Assay (MCF-7, CellTiter-Glo). The experiment is classed as cell-based. The conditions noted are these: 5 days' compound exposure; for IC50: Homo sapiens, MCF7, 120 h. The gist of the method:
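MCF-7 cells, 320 per well in RPMI with 10% FBS and 20 mM HEPES, adhered overnight, then exposed 5 days to an eleven-point semilog dilution (final 0.3-0.000003 μM). CellTiter-Glo luminescence read; % viability = (sample − cell-free background)/(untreated − background) × 100.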

19 compounds from patent US8455534B2, “Estrogen receptor modulators and uses thereof” (Aragon Pharmaceuticals, Inc., priority 2010, dated 2013) can be followed below.

Turning to `O=C(O)/C=C/c1ccc(/C(=C(/CCF)c2ccc(F)cc2)c2ccc3[nH]ncc3c2)cc1` [Compound 78, (E)-3-(4-((E)-4-Fluoro-2-(4-fluorophenyl)-1-(1H-indazol-5-yl)but-1-en-1-yl)phenyl)acrylic acid], on ER-α, the Emax was ≥ 40% and the DC50 was ≤ 100 nM. In addition, in the experiment with MCF-7 cells, the “MCF7 Viability Assay Max Response” value is “++ (++ = a single % value ≧ 40%)” and the half-inhibitory concentration (IC50) was ≤ 100 nM.

Consider `O=C(O)/C=C/c1ccc(/C(=C(/CCF)c2ccccc2)c2ccc3[nH]ncc3c2F)cc1` [Compound 79, (E)-3-(4-((E)-4-Fluoro-1-(4-fluoro-1H-indazol-5-yl)-2-phenylbut-1-en-1-yl)phenyl)acrylic acid], for which, at ER-α, the Emax is ≥ 40% and the DC50 is ≤ 100 nM. In the experiment with MCF-7 cells, the “MCF7 Viability Assay Max Response” value was “++ (++ = a single % value ≧ 40%)” and the IC50 was ≤ 100 nM.

For the compound `COCCC/C(=C(/c1ccc(/C=C/C(=O)O)cc1)c1ccc2[nH]ncc2c1)c1ccccc1` [Compound 80, (E)-3-(4-((E)-1-(1H-Indazol-5-yl)-5-methoxy-2-phenylpent-1-en-1-yl)phenyl)acrylic acid], at ER-α, the Emax is ≥ 40% and the DC50 was ≤ 100 nM. In the experiment on MCF-7 cells, the “MCF7 Viability Assay Max Response” value is given as “++ (++ = a single % value ≧ 40%)” and the IC50 is > 100 nM.

For `COCCCC/C(=C(/c1ccc(/C=C/C(=O)O)cc1)c1ccc2[nH]ncc2c1)c1ccccc1` [Compound 81, (E)-3-(4-((E)-1-(1H-Indazol-5-yl)-6-methoxy-2-phenylhex-1-en-1-yl)phenyl)acrylic acid], at ER-α, the Emax was ≥ 40% and the DC50 was ≤ 100 nM. In addition, in the experiment on MCF-7 cells, the “MCF7 Viability Assay Max Response” value was “++ (++ = a single % value ≧ 40%)” and the IC50 was > 100 nM.

Take `CC(C)/C(=C(/c1ccc(/C=C/C(=O)O)cc1)c1ccc2[nH]ncc2c1)c1ccc(F)cc1Cl` [Compound 82, (E)-3-(4-((E)-2-(2-Chloro-4-fluorophenyl)-1-(1H-indazol-5-yl)-3-methylbut-1-en-1-yl)phenyl)acrylic acid]: at ER-α, the Emax is ≥ 40% and the DC50 was ≤ 100 nM. In the experiment on MCF-7 cells, the “MCF7 Viability Assay Max Response” value is on record as “++ (++ = a single % value ≧ 40%)” and the IC50 was ≤ 100 nM.

For the compound `CC/C(=C(/c1ccc(/C=C/C(=O)O)cc1)c1ccc2[nH]ncc2c1)c1cccc(OC(F)(F)F)c1` [Compound 83, (E)-3-(4-((E)-1-(1H-Indazol-5-yl)-2-(3-(trifluoromethoxy)phenyl)but-1-en-1-yl)phenyl)acrylic acid], at ER-α, the Emax was ≥ 40% and the DC50 was ≤ 100 nM. In the experiment on MCF-7 cells, the “MCF7 Viability Assay Max Response” value is recorded as “++ (++ = a single % value ≧ 40%)” and the IC50 was ≤ 100 nM.

As to `O=C(O)/C=C/c1ccc(/C(=C(\c2ccccc2)C2CCC2)c2ccc3[nH]ncc3c2)cc1` [Compound 84, (E)-3-(4-((E)-2-Cyclobutyl-1-(1H-indazol-5-yl)-2-phenylvinyl)phenyl)acrylic acid], on ER-α, the Emax is ≥ 40% and the DC50 was ≤ 100 nM. In addition, in the experiment on MCF-7 cells, the “MCF7 Viability Assay Max Response” value is reported as “++ (++ = a single % value ≧ 40%)” and the IC50 is ≤ 100 nM.

Consider `O=C(O)/C=C/c1ccc(/C(=C(\c2ccc(F)cc2Cl)C2CCC2)c2ccc3[nH]ncc3c2)cc1` [Compound 85, (E)-3-(4-((E)-2-(2-Chloro-4-fluorophenyl)-2-cyclobutyl-1-(1H-indazol-5-yl)vinyl)phenyl)acrylic acid], for which, on ER-α, the Emax was ≥ 40% and the DC50 was ≤ 100 nM. Also, in the experiment on MCF-7 cells, the “MCF7 Viability Assay Max Response” value was “++ (++ = a single % value ≧ 40%)” and the IC50 was ≤ 100 nM.

With `CC/C(=C(/c1ccc(/C=C/C(=O)O)cc1)c1ccc2[nH]nc(F)c2c1)c1ccccc1` [Compound 86, (E)-3-(4-((E)-1-(3-Fluoro-1H-indazol-5-yl)-2-phenylbut-1-en-1-yl)phenyl)acrylic acid], at ER-α, the Emax was ≥ 40% and the DC50 is ≤ 100 nM. Further, in the experiment on MCF-7 cells, the “MCF7 Viability Assay Max Response” value was “++ (++ = a single % value ≧ 40%)” and the IC50 is ≤ 100 nM.

Consider `O=C(O)/C=C/c1ccc(/C(=C(\c2ccccc2)C2CCC2)c2ccc3[nH]nc(F)c3c2)cc1` [Compound 87, (E)-3-(4-((E)-2-Cyclobutyl-1-(3-fluoro-1H-indazol-5-yl)-2-phenylvinyl)phenyl)acrylic acid], for which, at ER-α, the Emax was ≥ 40% and the DC50 was ≤ 100 nM. Also, in the experiment on MCF-7 cells, the “MCF7 Viability Assay Max Response” value was “++ (++ = a single % value ≧ 40%)” and the IC50 is ≤ 100 nM.

In the case of `CC/C(=C(/c1ccc(/C=C/C(=O)O)cc1)c1ccc2[nH]nc(F)c2c1)c1ccc(F)cc1Cl` [Compound 88, (E)-3-(4-((E)-2-(2-Chloro-4-fluorophenyl)-1-(3-fluoro-1H-indazol-5-yl)but-1-en-1-yl)phenyl)acrylic acid], on ER-α, the Emax was ≥ 40% and the DC50 was ≤ 100 nM. Further, in the experiment on MCF-7 cells, the “MCF7 Viability Assay Max Response” value is “++ (++ = a single % value ≧ 40%)” and the IC50 is ≤ 100 nM.

As to `O=C(O)/C=C/c1ccc(/C(=C(\c2ccc(F)cc2Cl)C2CCC2)c2ccc3[nH]nc(F)c3c2)cc1` [Compound 89, (E)-3-(4-((E)-2-(2-Chloro-4-fluorophenyl)-2-cyclobutyl-1-(3-fluoro-1H-indazol-5-yl)vinyl)phenyl)acrylic acid], on ER-α, the Emax is ≥ 40% and the DC50 was ≤ 100 nM. Also, in the experiment on MCF-7 cells, the “MCF7 Viability Assay Max Response” value is recorded as “++ (++ = a single % value ≧ 40%)” and the IC50 was ≤ 100 nM.

As to `CCOC(=O)/C=C/c1ccc(/C(=C(/CC)c2ccc(F)cc2)c2ccc3[nH]ncc3c2)cc1` [Compound 90, (E)-Ethyl 3-(4-((E)-2-(4-fluorophenyl)-1-(1H-indazol-5-yl)but-1-en-1-yl)phenyl)acrylate], at ER-α, the Emax is ≥ 40% and the DC50 is ≤ 100 nM. Further, in the experiment on MCF-7 cells, the “MCF7 Viability Assay Max Response” value was “+ (+ = a single % value < 40%)” and the half-maximal inhibitory concentration (IC50) is ≤ 100 nM.

As for `CC/C(=C(/c1ccc(/C=C/C(=O)O)cc1)c1ccc2[nH]ncc2c1)c1cccc(O)c1` [Compound 93, (E)-3-(4-((E)-2-(3-Hydroxyphenyl)-1-(1H-indazol-5-yl)but-1-en-1-yl)phenyl)acrylic acid], on ER-α, the Emax is ≥ 40% and the DC50 is ≤ 100 nM. Further, in the experiment with MCF-7 cells, the “MCF7 Viability Assay Max Response” value is “++ (++ = a single % value ≧ 40%)” and the IC50 was ≤ 100 nM.

Turning to `CC/C(=C(/c1ccc(/C=C/C(=O)O)cc1)c1ccc2[nH]ncc2c1)c1ccccc1O` [Compound 94, (E)-3-(4-((E)-2-(2-Hydroxyphenyl)-1-(1H-indazol-5-yl)but-1-en-1-yl)phenyl)acrylic acid], at ER-α, the Emax is ≥ 40% and the DC50 is ≤ 100 nM. Further, in the experiment on MCF-7 cells, the “MCF7 Viability Assay Max Response” value is given as “++ (++ = a single % value ≧ 40%)” and the IC50 is > 100 nM.

For the compound `CC/C(=C(/c1ccc(/C=C/C(=O)O)cc1)c1ccc2[nH]ncc2c1)c1ccc(O)cc1` [Compound 95, (E)-3-(4-((E)-2-(4-Hydroxyphenyl)-1-(1H-indazol-5-yl)but-1-en-1-yl)phenyl)acrylic acid], on ER-α, the Emax was ≥ 40% and the DC50 was ≤ 100 nM. In addition, in the experiment on MCF-7 cells, the “MCF7 Viability Assay Max Response” value is “++ (++ = a single % value ≧ 40%)” and the IC50 is ≤ 100 nM.

Consider `CCCCOc1cccc(/C(CC)=C(\c2ccc(/C=C/C(=O)O)cc2)c2ccc3[nH]ncc3c2)c1` [Compound 96, (E)-3-(4-((E)-2-(3-Butoxyphenyl)-1-(1H-indazol-5-yl)but-1-en-1-yl)phenyl)acrylic acid], for which, on ER-α, the Emax was ≥ 40% and the DC50 is ≤ 100 nM. Also, in the experiment on MCF-7 cells, the “MCF7 Viability Assay Max Response” value is “++ (++ = a single % value ≧ 40%)” and the IC50 is ≤ 100 nM.

For `CCCCOc1ccc(/C(CC)=C(\c2ccc(/C=C/C(=O)O)cc2)c2ccc3[nH]ncc3c2)cc1` [Compound 97, (E)-3-(4-((E)-2-(4-Butoxyphenyl)-1-(1H-indazol-5-yl)but-1-en-1-yl)phenyl)acrylic acid], on ER-α, the Emax was ≥ 40% and the DC50 was ≤ 100 nM. For the same compound, in the experiment with MCF-7 cells, the “MCF7 Viability Assay Max Response” value was “++ (++ = a single % value ≧ 40%)” and the IC50 was ≤ 100 nM.

`CC/C(=C(/c1ccc(/C=C/C(=O)O)cc1)c1ccc2[nH]ncc2c1)c1ccccc1S(C)(=O)=O` [Compound 98, (E)-3-(4-((E)-1-(1H-Indazol-5-yl)-2-(2-(methylsulfonyl)phenyl)but-1-en-1-yl)phenyl)acrylic acid]: the Emax at ER-α was ≥ 40%. In the experiment with MCF-7 cells, the “MCF7 Viability Assay Max Response” value is “++ (++ = a single % value ≧ 40%)” and the IC50 is ≤ 100 nM.

In general, IC50 refers to the concentration that gives 50% inhibition.
